Assay results published in publication PMC6925656 (Clinical pharmacology and therapeutics, 2019).

Assays:
human OCT1 [1] = target: T1, human OCT1 (Homo sapiens, UniProt O15245); test: Uptake into OCT1-expressing or nonexpressing Xenopus laevis oocytes
T1 sequence (O15245 1-554): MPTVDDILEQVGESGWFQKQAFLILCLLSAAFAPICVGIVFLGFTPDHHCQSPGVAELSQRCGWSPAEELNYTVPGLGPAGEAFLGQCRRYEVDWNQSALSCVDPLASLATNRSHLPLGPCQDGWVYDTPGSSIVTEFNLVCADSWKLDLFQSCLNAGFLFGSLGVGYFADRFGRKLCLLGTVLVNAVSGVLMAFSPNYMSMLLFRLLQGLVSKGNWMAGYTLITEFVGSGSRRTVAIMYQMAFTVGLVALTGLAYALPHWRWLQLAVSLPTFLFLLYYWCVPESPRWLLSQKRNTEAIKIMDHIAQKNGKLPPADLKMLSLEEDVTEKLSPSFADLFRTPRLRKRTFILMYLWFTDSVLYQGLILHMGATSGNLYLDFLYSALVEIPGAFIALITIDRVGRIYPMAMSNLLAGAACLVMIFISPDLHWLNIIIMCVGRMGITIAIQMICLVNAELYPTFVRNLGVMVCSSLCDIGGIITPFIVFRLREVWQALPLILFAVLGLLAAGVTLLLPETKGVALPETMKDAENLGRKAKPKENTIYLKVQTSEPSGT

Huh7 cells = test: Uptake into Huh7 liver cancer cells; type: in vitro ADME, human
human OCT1 [2] = target: T1, human OCT1; test: Uptake into HEK293 cells expressing human OCT1
HepG2 cells = test: Uptake into HepG2 liver cancer cells; type: in vitro ADME, human
HeLa cells = test: Sorafenib uptake and membrane binding in HeLa cells; type: in vitro ADME; settings: for Interference with non-specific membrane binding of sorafenib: isolated membrane fraction
Oct1 [3] = test: Pharmacokinetics in Oct1-deficient versus wild-type mice; settings: for Pharmacokinetic parameters, Oct1-deficient vs wild-type mice: sorafenib single oral dose 10 mg/kg, plasma
human OCT2 = human OCT2 (Homo sapiens, UniProt O15244); settings: HEK293 cells overexpressing human OCT2, Figure S1
p38α = settings: cited from earlier work
hOATP2B1 = target: T2, hOATP2B1 (Homo sapiens, UniProt O94956); test: Sorafenib uptake by HEK cells overexpressing hOATP2B1; type: in vitro ADME; settings: Figure S4
T2 sequence (O94956 1-709): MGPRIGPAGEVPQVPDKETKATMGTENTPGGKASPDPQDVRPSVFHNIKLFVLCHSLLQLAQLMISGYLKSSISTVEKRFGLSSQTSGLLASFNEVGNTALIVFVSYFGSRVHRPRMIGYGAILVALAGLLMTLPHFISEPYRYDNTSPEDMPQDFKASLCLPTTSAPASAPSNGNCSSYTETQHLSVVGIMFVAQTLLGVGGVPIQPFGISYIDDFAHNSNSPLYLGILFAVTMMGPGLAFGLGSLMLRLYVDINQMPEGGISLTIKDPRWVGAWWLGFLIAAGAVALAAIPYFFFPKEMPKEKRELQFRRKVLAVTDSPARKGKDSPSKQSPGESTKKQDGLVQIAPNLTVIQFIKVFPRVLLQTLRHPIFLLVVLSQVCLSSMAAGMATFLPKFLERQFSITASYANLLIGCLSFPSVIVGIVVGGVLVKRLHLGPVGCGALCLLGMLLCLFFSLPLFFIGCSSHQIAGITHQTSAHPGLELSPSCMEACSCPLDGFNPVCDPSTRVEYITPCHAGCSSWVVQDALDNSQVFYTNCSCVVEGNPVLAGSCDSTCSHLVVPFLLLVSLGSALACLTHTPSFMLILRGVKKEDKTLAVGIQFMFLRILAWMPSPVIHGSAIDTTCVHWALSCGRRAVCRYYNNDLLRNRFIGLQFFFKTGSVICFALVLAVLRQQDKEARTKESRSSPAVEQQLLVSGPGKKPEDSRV

[4] = cited from earlier work
OCT1 [5] = settings: cited from earlier work
p38α (MAPK14) = p38α (MAPK14) (Homo sapiens, UniProt Q16539); settings: live HEK293 cells, 60 min; BIRB796 5 nM, sorafenib 5 μM; DMSO 44.3 °C
human OCT3 = target: T3, human OCT3 (Homo sapiens, UniProt O75751); test: Sorafenib transport in HEK293 cells overexpressing human OCT3; type: in vitro ADME; settings: HEK293 cells overexpressing human OCT3, Figure S1
T3 sequence (O75751 1-556): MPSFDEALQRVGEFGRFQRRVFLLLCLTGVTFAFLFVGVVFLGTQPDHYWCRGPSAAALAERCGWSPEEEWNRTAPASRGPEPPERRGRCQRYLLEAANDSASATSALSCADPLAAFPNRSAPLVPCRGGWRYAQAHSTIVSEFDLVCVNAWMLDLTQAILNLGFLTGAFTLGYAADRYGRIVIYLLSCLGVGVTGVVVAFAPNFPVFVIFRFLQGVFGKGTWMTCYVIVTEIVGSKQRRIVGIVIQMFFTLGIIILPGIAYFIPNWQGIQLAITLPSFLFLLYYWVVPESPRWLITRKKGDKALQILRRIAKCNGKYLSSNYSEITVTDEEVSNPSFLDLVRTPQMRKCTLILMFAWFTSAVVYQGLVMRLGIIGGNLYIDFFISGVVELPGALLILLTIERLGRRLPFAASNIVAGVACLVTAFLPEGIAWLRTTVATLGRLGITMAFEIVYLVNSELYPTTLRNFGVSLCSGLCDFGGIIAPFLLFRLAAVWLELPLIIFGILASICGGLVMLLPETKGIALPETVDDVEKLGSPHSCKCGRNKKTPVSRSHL

OATP2B1 = target: T4, OATP2B1 (Mus musculus, UniProt Q8BXB6); test: Sorafenib pharmacokinetics in OATP2B1-deficient mice; type: in vivo; settings: Figure S4
T4 sequence (Q8BXB6 1-683): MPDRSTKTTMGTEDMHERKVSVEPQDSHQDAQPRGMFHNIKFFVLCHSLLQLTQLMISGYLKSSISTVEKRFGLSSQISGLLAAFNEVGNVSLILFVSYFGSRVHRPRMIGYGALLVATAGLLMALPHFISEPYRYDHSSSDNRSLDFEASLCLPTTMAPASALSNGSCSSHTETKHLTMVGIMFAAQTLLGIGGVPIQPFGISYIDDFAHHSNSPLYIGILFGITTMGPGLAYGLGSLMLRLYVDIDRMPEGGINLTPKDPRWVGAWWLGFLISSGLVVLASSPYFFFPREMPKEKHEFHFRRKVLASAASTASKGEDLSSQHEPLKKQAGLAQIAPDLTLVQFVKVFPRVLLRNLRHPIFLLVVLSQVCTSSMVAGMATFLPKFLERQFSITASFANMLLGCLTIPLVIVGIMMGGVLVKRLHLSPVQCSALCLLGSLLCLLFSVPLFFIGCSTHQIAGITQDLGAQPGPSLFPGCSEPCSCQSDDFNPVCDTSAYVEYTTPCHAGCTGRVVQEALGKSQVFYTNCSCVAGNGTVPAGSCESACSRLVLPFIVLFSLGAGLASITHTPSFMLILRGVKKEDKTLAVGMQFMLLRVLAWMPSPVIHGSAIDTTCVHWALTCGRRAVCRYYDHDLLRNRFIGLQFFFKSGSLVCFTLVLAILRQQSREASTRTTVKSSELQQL

mOATP2B1 = target: T5, mOATP2B1 (Mus musculus, UniProt Q8BXB6); test: Sorafenib uptake by HEK cells overexpressing mOATP2B1; type: in vitro ADME; settings: Figure S4
T5 sequence (Q8BXB6 1-683): T4 sequence (Q8BXB6 1-683)

Chain of human OCT2 (O15244 whole entry): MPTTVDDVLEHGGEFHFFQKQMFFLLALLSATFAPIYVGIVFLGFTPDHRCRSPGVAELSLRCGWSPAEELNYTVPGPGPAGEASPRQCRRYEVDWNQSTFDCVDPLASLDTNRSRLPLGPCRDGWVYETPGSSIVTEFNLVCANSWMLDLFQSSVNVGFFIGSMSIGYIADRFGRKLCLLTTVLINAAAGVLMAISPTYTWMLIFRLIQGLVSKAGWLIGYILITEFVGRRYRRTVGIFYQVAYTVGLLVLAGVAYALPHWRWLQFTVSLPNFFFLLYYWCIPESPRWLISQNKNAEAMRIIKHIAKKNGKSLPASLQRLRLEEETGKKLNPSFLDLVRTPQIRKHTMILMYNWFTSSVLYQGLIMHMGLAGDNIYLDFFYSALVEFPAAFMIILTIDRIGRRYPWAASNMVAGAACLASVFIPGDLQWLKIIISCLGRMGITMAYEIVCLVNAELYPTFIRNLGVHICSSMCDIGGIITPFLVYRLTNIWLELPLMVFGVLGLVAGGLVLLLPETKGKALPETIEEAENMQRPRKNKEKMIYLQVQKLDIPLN
Chain of p38α (MAPK14) (Q16539 whole entry): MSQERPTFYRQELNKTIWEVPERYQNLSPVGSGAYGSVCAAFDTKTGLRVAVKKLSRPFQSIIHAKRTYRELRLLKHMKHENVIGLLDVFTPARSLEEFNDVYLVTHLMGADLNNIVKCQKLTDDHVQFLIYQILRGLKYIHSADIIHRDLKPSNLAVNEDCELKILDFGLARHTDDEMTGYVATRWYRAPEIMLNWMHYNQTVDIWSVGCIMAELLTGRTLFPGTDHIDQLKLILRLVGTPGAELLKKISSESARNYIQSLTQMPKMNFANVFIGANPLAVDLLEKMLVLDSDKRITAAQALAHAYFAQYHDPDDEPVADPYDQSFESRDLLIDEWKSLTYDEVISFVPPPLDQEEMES

Compound: C[n+]1ccc(-c2ccccc2)cc1 [MPP]
- Increase of MPP uptake, OCT1 present vs absent (human OCT1 [1]; MPP 1 μM, 20 min): 13 fold
- Uptake of MPP into oocytes in the presence of OCT1 (human OCT1 [1]; MPP 1 μM, 20 min, OCT1-expressing oocytes): 2.1 pmol/oocyte/20 min
- Uptake of MPP into oocytes in the absence of OCT1 (human OCT1 [1]; MPP 1 μM, 20 min, nonexpressing oocytes): 0.16 pmol/oocyte/20 min
- Effect of excess MPP on OCT1-mediated MPP uptake (human OCT1 [1]; […] MPP as inhibitor, 1 μM MPP as substrate): completely blocked

Compound: CC[N+](CC)(CC)CC [TEA]
- TEA uptake compared to HEK293-OCT1 cells (Huh7 cells; Huh7, TEA 100 μM, 10 min): did not take up appreciable levels
- Increase of TEA uptake in HEK293-OCT1 vs HEK293-VC cells (human OCT1 [2]; TEA 100 μM, 10 min): 23.5±1.2 fold
- TEA uptake compared to HEK293-OCT1 cells (HepG2 cells; HepG2, TEA 100 μM, 10 min): did not take up appreciable levels

Compound: CCN1/C(=C/c2ccc3ccccc3[n+]2CC)C=Cc2ccccc21.[I-] [decynium22]
- Interference with non-specific membrane binding of sorafenib (HeLa cells; HeLa cells): neither inhibitor interfered
- Effect of inhibitor on sorafenib uptake in HEK293-OCT1 and HEK293-VC cells (human OCT1 [2]; decynium22 5 μM, sorafenib 0.2 μM, 10 min): decreased sorafenib uptake
- Effect of inhibitor on TEA uptake in OCT1 transfectants (human OCT1 [2]; probe substrate TEA, OCT1-transfected HEK293 cells): almost completely abolished

Compound: CNC(=O)c1cc(Oc2ccc(NC(=O)Nc3ccc(Cl)c(C(F)(F)F)c3)cc2)cc[n+]1[O-] [sorafenib-N-oxide]
- Transport of sorafenib-N-oxide by OCT1 (human OCT1 [2]; 1 μM, HEK293 cells expressing VC or OCT1, time-dependent uptake): not transported by OCT1
- Hepatic levels (Oct1 [3]; sorafenib 10 mg/kg oral, 7.5 h, data not shown): below the lower limit of quantification
- Pharmacokinetic parameters, Oct1-deficient vs wild-type mice (Oct1 [3]): minimal difference

Compound: CNC(=O)c1cc(Oc2ccc(NC(=O)Nc3ccc(Cl)c(C(F)(F)F)c3)cc2)ccn1 [sorafenib]
- Transport of sorafenib by OCT2 (human OCT2): do not transport sorafenib
- IC50 (p38α): 38 nM
- Sorafenib uptake, HEK-VC vs hOATP2B1-overexpressing HEK cells (hOATP2B1): did not detect a different sorafenib uptake
- Apparent cellular uptake of sorafenib (HeLa cells; HeLa cells, sorafenib 0.2 μM, 10-min incubation): > 800 pmol/mg protein
- Non-specific binding to cell membranes, share of total cell-associated drug (HeLa cells; confirms earlier observation of ref 25): up to 70%
- Characteristics of intracellular accumulation of sorafenib (Huh7 cells; Huh7): saturable, increased over time, and was found to be temperature-dependent
- Fraction of dose found in urine [4]: About 19%
- Sorafenib uptake, HEK293-OCT1 vs HEK293-VC cells (human OCT1 [2]; sorafenib 0.2 μM, 10 min): no difference
- Sorafenib transport at 4 °C compared with 37 °C (human OCT1 [2]; sorafenib 7.5 μM, HEK293 cells, independently of OCT1): reduced
- Time at which sorafenib uptake reaches a plateau (human OCT1 [2]; sorafenib 7.5 μM, both HEK293-OCT1 and HEK293-VC cells): about 10 min
- Inhibition of the transport of known OCT1 substrates (OCT1 [5]): poor inhibitor
- Characteristics of intracellular accumulation of sorafenib (HepG2 cells; HepG2): saturable, increased over time, and was found to be temperature-dependent
- Apparent aggregation temperature of p38α (p38α (MAPK14)): 54.5 °C
- Transport of sorafenib by OCT3 (human OCT3): do not transport sorafenib
- Effect of OATP2B1 deficiency in mice on sorafenib pharmacokinetics (OATP2B1): did not detect
- Liver concentrations, Oct1-deficient vs wild-type mice (Oct1 [3]; sorafenib 10 mg/kg oral, 7.5 h): no significant differences
- Pharmacokinetic parameters, Oct1-deficient vs wild-type mice (Oct1 [3]): minimal difference
- Sorafenib uptake, OCT1-expressing vs nonexpressing oocytes (human OCT1 [1]; sorafenib 2 μM, 20 min, absence or presence of MPP […]): not different
- Sorafenib uptake, HEK-VC vs mOATP2B1-overexpressing HEK cells (mOATP2B1): did not detect a different sorafenib uptake

Compound: cyclosporin A
- Interference with non-specific membrane binding of sorafenib (HeLa cells; HeLa cells): neither inhibitor interfered
